This note sets out measurements from PubChem BioAssay (NCI).

Test systems include PC-3 prostate; HCT-15 colon; OVCAR-3 ovarian; MCF7 breast; UACC-62 melanoma; RXF 393 renal; OVCAR-5 ovarian; NCI-H522 lung; SR leukemia; COLO 205 colon; OVCAR-8 ovarian; MDA-MB-231 breast; HOP-62 NSCLC; HT29 colon; HCT-116 colon; SK-MEL-28 melanoma; SF-268 CNS; UO-31 renal; 786-0 renal; CCRF-CEM leukemia.
Experiment in all cases: NCI anticancer screen, dose series, 48 h

SMILES strings stand for the structures.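 A five-concentration, 48-hour dose response in 96-well plates underlies each endpoint, interpolated linearly between surrounding concentrations. At the TGI there is no net growth.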 A value given as a limit tells only on which side of the number the result lay.

Turning to `O=C(O)CC12CC3CC(CC(O)(C3)C1)C2`, the TGI with PC-3 prostate, in the assay on HCT-15 colon, with OVCAR-3 ovarian, with MCF7 breast, in the assay with UACC-62 melanoma and with RXF 393 renal was more than 100 µM in each case. Moreover, the TGI is more than 100 µM with OVCAR-5 ovarian; 59.4 µM in the assay with NCI-H522 lung; more than 100 µM in the assay with SR leukemia; more than 100 µM in the assay with COLO 205 colon; more than 100 µM in the assay with OVCAR-8 ovarian; more than 100 µM in the assay on MDA-MB-231 breast. Also, the TGI was more than 100 µM in the assay with HOP-62 NSCLC; more than 100 µM in the assay on HT29 colon; more than 100 µM with HCT-116 colon; more than 100 µM in the assay on SK-MEL-28 melanoma; 82.7 µM with SF-268 CNS; more than 100 µM in the assay on UO-31 renal. The compound also registered a TGI with 786-0 renal of more than 100 µM.

For the compound `O=C(NCCCCCCCN1CCCCCCC1)C(C1CCCCC1)C1CCCCC1`, the TGI stood at 21.1 µM with PC-3 prostate; 15.2 µM in the assay with HCT-15 colon; 18.6 µM with OVCAR-3 ovarian; 19.8 µM in the assay on MCF7 breast; 10.1 µM in the assay with UACC-62 melanoma; 17 µM with RXF 393 renal. Besides, the TGI with OVCAR-5 ovarian amounted to 23.2 µM; in the assay on NCI-H522 lung it was 30.9 µM; with SR leukemia it was 6.84 µM; in the assay with COLO 205 colon, 8.64 µM; in the assay on OVCAR-8 ovarian, 26 µM; in the assay with MDA-MB-231 breast, 20.8 µM. For the same compound, the TGI in the assay on HOP-62 NSCLC is 14.4 µM; in the assay on HT29 colon it was 11.7 µM; in the assay with HCT-116 colon, 21.5 µM; in the assay with SK-MEL-28 melanoma, 16.3 µM; in the assay with SF-268 CNS, 32.5 µM; with UO-31 renal, 21.3 µM. Further, the TGI in the assay with CCRF-CEM leukemia was 46.9 µM; in the assay with 786-0 renal, 12.6 µM.

Turning to `O=C(/C=C(\Nc1ccccc1O)c1ccc(Br)cc1)C(Cl)(Cl)Cl`, the TGI was found to be 11.9 µM in the assay on PC-3 prostate; 25.9 µM in the assay on HCT-15 colon; 18.5 µM in the assay with OVCAR-3 ovarian; 20 µM in the assay on MCF7 breast; 26.3 µM in the assay on UACC-62 melanoma; 19.2 µM with RXF 393 renal. Further, the TGI turned out to be 24.5 µM in the assay on OVCAR-5 ovarian; 30.2 µM in the assay on NCI-H522 lung; 36.7 µM with SR leukemia; 22.1 µM with COLO 205 colon; 27 µM with OVCAR-8 ovarian; 20.3 µM with MDA-MB-231 breast. For the same compound, the TGI in the assay with HOP-62 NSCLC worked out at 31.6 µM; with HT29 colon, 20.8 µM; in the assay with HCT-116 colon, 22.4 µM; with SK-MEL-28 melanoma, 24.6 µM; in the assay on SF-268 CNS, 25.8 µM; in the assay on UO-31 renal it was 10.8 µM. The TGI was found to be 36.7 µM in the assay with CCRF-CEM leukemia and 27.6 µM with 786-0 renal.

Consider `O=C1C=C(C2=C(C3=CC(=O)c4ccccc4C3=O)C(=O)c3ccccc3C2=O)C(=O)c2ccccc21`, for which the TGI in the assay on PC-3 prostate turned out to be 47.6 µM; with HCT-15 colon, 28.9 µM; with OVCAR-3 ovarian, 12.9 µM; with MCF7 breast, 29.6 µM; with UACC-62 melanoma, 31.6 µM; in the assay on RXF 393 renal, 14.5 µM. For the same compound, the TGI in the assay on OVCAR-5 ovarian is 25.6 µM; in the assay with NCI-H522 lung it was 7.17 µM; in the assay on SR leukemia, more than 100 µM; in the assay with COLO 205 colon, 17.3 µM; in the assay on OVCAR-8 ovarian, 19.1 µM; in the assay with MDA-MB-231 breast, 13.8 µM. In addition, the TGI in the assay with HOP-62 NSCLC was 33.5 µM; in the assay on HT29 colon, 12.5 µM; with HCT-116 colon, 20.5 µM; with SK-MEL-28 melanoma, 29.8 µM; with SF-268 CNS, 33.8 µM; in the assay on UO-31 renal, 11.1 µM. Moreover, the TGI was 1.43 µM in the assay with CCRF-CEM leukemia and 12.6 µM with 786-0 renal.

Regarding `O=c1cc(CNC2CC3CCC2C3)[nH]c(=O)[nH]1` (configuration not stated), the TGI in the assay on PC-3 prostate, in the assay with HCT-15 colon, in the assay with OVCAR-3 ovarian, with MCF7 breast, in the assay on UACC-62 melanoma and in the assay on RXF 393 renal was more than 100 µM in each case. Besides, the TGI in the assay on OVCAR-5 ovarian, in the assay with NCI-H522 lung, in the assay on SR leukemia, in the assay on COLO 205 colon, with OVCAR-8 ovarian and in the assay on MDA-MB-231 breast was more than 100 µM in each case. Also, the TGI with HOP-62 NSCLC, in the assay with HT29 colon, in the assay with HCT-116 colon, with SK-MEL-28 melanoma, in the assay on SF-268 CNS and in the assay on UO-31 renal was more than 100 µM throughout. In addition, the TGI in the assay on CCRF-CEM leukemia and in the assay on 786-0 renal was more than 100 µM in each case.

Turning to `COc1ccc(-n2c(C)nc3ccc(NC4OC(CO)C(O)C(O)C4O)cc3c2=O)cc1` (configuration not stated), the TGI in the assay with PC-3 prostate, in the assay on HCT-15 colon, in the assay with OVCAR-3 ovarian, with MCF7 breast, in the assay on UACC-62 melanoma and with RXF 393 renal was more than 100 µM throughout. For the same compound, the TGI in the assay on OVCAR-5 ovarian, with NCI-H522 lung, with SR leukemia, in the assay with COLO 205 colon, with OVCAR-8 ovarian and in the assay with MDA-MB-231 breast was more than 100 µM throughout. For the same compound, the TGI in the assay with HOP-62 NSCLC, with HT29 colon, in the assay on HCT-116 colon, in the assay on SK-MEL-28 melanoma, with SF-268 CNS and in the assay on UO-31 renal was more than 100 µM in each case. In the assay on 786-0 renal, this compound yielded a TGI of more than 100 µM.

With `C=C[C@]1(O[Si](C)(C)C)C[C@@]2(C(=O)OCC)C(O)C(=O)N3CCc4cc(OC)c(OC)cc4[C@]312` (some centres not stated), the TGI in the assay with PC-3 prostate, in the assay with HCT-15 colon, in the assay on OVCAR-3 ovarian, with MCF7 breast, in the assay on UACC-62 melanoma and with RXF 393 renal was more than 100 µM throughout. Besides, the TGI in the assay with OVCAR-5 ovarian, in the assay on SR leukemia, in the assay on COLO 205 colon, with OVCAR-8 ovarian, with MDA-MB-231 breast and in the assay with HOP-62 NSCLC was more than 100 µM each time. Also, the TGI in the assay on HT29 colon, with HCT-116 colon, in the assay with SK-MEL-28 melanoma, with SF-268 CNS, in the assay with UO-31 renal and in the assay on CCRF-CEM leukemia was more than 100 µM each time. The same compound displayed a TGI in the assay on 786-0 renal of more than 100 µM.
